From patent US20220227804A1, “COMBINATION OF A POLYHYDROXYLATED BILE ACID AND A FARNESOID X RECEPTOR AGONIST” (QING BILE THERAPEUTICS INC., priority 2019, published 2022)
Where two headings read alike, the source gives them in different places.

Experiments:
Mdr2^−/− mice [1] = conditions: mouse, in vivo
Mdr2^−/− mice [2] = experiment: First study: dietary supplementation of Mdr2−/− mice (mouse model of human PSC and PFIC) for 17 weeks; conditions: mono-treatment, 0.03% OCA or 1% THBA (w/w) in diet, from 3 to 20 weeks of age, female mice

Row | SMILES | adverse effects (Mdr2^−/− mice [1]) | liver indicator profiles (bilirubin, ALT, ALP, total bile acids in plasma) (Mdr2^−/− mice [2]) | adverse effects (Mdr2^−/− mice [2])
1 | C[C@H](CCC(=O)O)[C@H]1CC[C@H]2[C@@H]3[C@H](O)[C@H](O)[C@@H]4C[C@H](O)CC[C@]4(C)[C@H]3C[C@H](O)[C@]12C [THBA, 3α, 6α, 7α, 12α-tetrahydroxy-5β-cholan-24-oic acid] | no significant, obvious, adverse effects | significantly improved liver indicator profiles | –
2 | CC[C@H]1[C@@H](O)[C@@H]2[C@H](CC[C@]3(C)[C@@H]([C@H](C)CCC(=O)O)CC[C@@H]23)[C@@]2(C)CC[C@@H](O)C[C@@H]12 [OCA, Obeticholic acid, reference compound] | – | – | no significant, obvious, adverse effects
